We go through three compounds from patent US10548865B1, “Compositions of citrulline” (Hubei Grand Biotechnology Co. Ltd., priority 2019, dated 2020).

This experiment deals with mice. Kind of experiment: Loaded swimming test, exercise time to exhaustion. In kind it is in vivo. The note with it: intragastric, 1 hour prior to test. Here is the method: Adult (8-10 weeks) male ICR mice were used in this study and purchased from Beijing Vital River Laboratory Animal Technology Co., Ltd. All the mice were provided with a normal diet and water ad libitum. All procedures were approved by institutional guidelines and the Animal Care and Use Committee (Huazhong University of Science and Technology, Wuhan, China) of the university's animal core facility. The mice were group-housed under a 12 h light-dark cycle (lights on at 8:00 a.m.), at consistent humidity (50±5%), and ambient temperature (22˜24° C.).
The animals were bred with three mice per cage in the laboratory, and were acclimatized for 1 week before the experiments. The mice were grouped randomly for each experiment. The mice in each group were given the corresponding dose amino acid and the control group was treated with the equal volume of normal saline (NS) through intragastric administration. Loaded swimming experiments were performed to assess the acute effect of the amino acids on endurance one hour after the treatment
The NS injection were purchased from Beijing Pharmaceutical Group Co., Ltd. The amino acid powders were dissolved in NS and then were intragastric administration to mice by lavage needle (Beijing Vital River Laboratory Animal Technology Co., Ltd.).
Acute effects on endurance performance were assessed by loaded swimming test one hour after the amino acid treatment. The swimming exercise was carried out in a tank (diameter 120 cm) filled with fresh water to 30-cm depth at 24±2° C. A tin wire (⅛ of body weight) was attached on the tail of the mouse. […] The length of time each mouse kept swimming before exhaustion (exercise time to exhaustion) was recorded. At the end of the session, the mice were removed from the water, dried with paper towels, and placed back in their home cages.
Sixty mice were randomly divided into four groups (n=15 per group). Each of the four group were treated with NS, citrulline (200 mg/kg body weight), GABA (150 mg/kg body weight), and citrulline/GABA mixture (200 mg/kg+150 mg/kg) respectively. The results were summarized below (Table 2 and FIG. 1).
The methods used here are the same as in Example 1, but GABA (150 mg/kg) was replaced by taurine (200 mg/kg). The results were summarized below (Table 3 and FIG. 2).
The methods used here are the same as in Example 1. Sixty mice were randomly divided into four groups (n=15 per group). Each of the four group were treated with NS, citrulline (75 mg/kg body weight), taurine (25 mg/kg body weight), and citrulline taurine mixture (75 mg/kg+25 mg/kg) respectively. The results were summarized below (Table 4 and FIG. 3).

[1] abbreviates: Example 1, citrulline 200 mg/kg, GABA 150 mg/kg, mixture 200 mg/kg+150 mg/kg, male ICR mice.
Setting [2] is: Example 2, citrulline 200 mg/kg, taurine 200 mg/kg, mixture 200 mg/kg+200 mg/kg.
[3] abbreviates: Example 3, lower doses, citrulline 75 mg/kg, taurine 25 mg/kg, mixture 75 mg/kg+25 mg/kg.

As for `NC(=O)NCCC[C@H](N)C(=O)O` [Citrulline, L-citrulline], the “Average Time (s), exercise time to exhaustion” value (from here on “Average Time (s), exercise time”) is 245.4 s under setting [1]; “about 245.4 s” (Example 1, citrulline 200 mg/kg, GABA 150 mg/kg, mixture 200 mg/kg+150 mg/kg, male ICR mice, listed as citrulline); 194.6 s under setting [2]; 207.7 s under setting [3]. For the same compound, the “Increase of exercise time to exhaustion vs control” value (“Increase of exercise time” for short) under setting [2] was 15.6%; the “Increase of exercise time” value (Example 2, citrulline 200 mg/kg, taurine 200 mg/kg, mixture 200 mg/kg+200 mg/kg, listed as citrulline) came to 15.6%; the “Increase of exercise time” value under setting [3] is 23.4%; the “Increase of exercise time” value (Example 3, lower doses, citrulline 75 mg/kg, taurine 25 mg/kg, mixture 75 mg/kg+25 mg/kg, listed as citrulline) was determined as 23.4%.

For `NCCCC(=O)O` [GABA, gamma-aminobutyric acid, reference compound], the “Average Time (s), exercise time” value under setting [1] was 216.8 s.

In the case of `NCCS(=O)(=O)O` [Taurine, taurine], the “Average Time (s), exercise time” value under setting [2] is listed as 208 s and the “Average Time (s), exercise time” value under setting [3] is given as 181 s. The “Increase of exercise time” value by setting is: under setting [2], 23.6%; (Example 2, citrulline 200 mg/kg, taurine 200 mg/kg, mixture 200 mg/kg+200 mg/kg, listed as taurine) 23.6%; under setting [3], 7.5%; (Example 3, lower doses, citrulline 75 mg/kg, taurine 25 mg/kg, mixture 75 mg/kg+25 mg/kg, listed as taurine) 7.5%.
